In one data set the test system is HBV. As to the kind of experiment: Anti-HBV activity in HepG2.2.15 cells (HBV DNA in culture medium by qPCR). The class given is cell-based. The settings on record: Hepatitis B virus, 144 h, 6 days of compound treatment. As to the method:
(§1) HepG2.2.15 (the HepG2.2.15 cell line can be produced by transfection of the HepG2 cell line as described in Sells, Chen, and Acs 1987 (Proc. Natl. Acad. Sci. USA 84:1005-1009), and the HepG2 cell line is available from ATCC® under number HB-8065™).
(§2) HepG2.2.15 cells were plated into 96-well plate in 2% FBS culture medium at the density of 40,000 cells/well and 5,000 cells/well for HBV inhibitory activity and cytotoxicity determination, respectively. After incubation at 37° C., 5% CO2 overnight, cells were treated with medium containing compounds for 6 days with medium and compounds refreshed after 3 days of treatment. Each compound was tested in a 1:3 serial dilutions at 8 different concentrations in triplicate. The highest concentration of the compounds was 10 uM or 1 uM for anti-HBV activity assay and 100 uM for cytotoxicity determination.
The change of HBV DNA level induced by the compounds was assessed by quantitative real-time polymerase chain reaction (qPCR). Briefly, the HBV DNA in the culture medium was extracted using QIAamp 96 DNA Blood Kit according to the manual and then quantified by real-time PCR assay using the primers and probe in the table 1 below.
(§3) EC50 and CC50 values are calculated by the […] PRISM software.
For orientation: Real-time PCR tracks product formation cycle by cycle.

Data set [1] in a line: Cytotoxicity determination in HepG2.2.15 cells (CCK-8 cell viability). Conditions: human, 6 days of compound treatment, CCK-8 assay. The class given is cell-based. As to the method: as §1, §2
Cell viability was determined by CCK-8 assay. After 6 days of compounds treatment, 20 μl CCK-8 reagents were added to each well of cytotoxicity assay plates. Cell plates were incubated at 37° C., 5% CO2 for 2.5 h. The absorbance at 450 nm wavelength and the absorbance at 630 nm wavelength as reference was measured.
as §3

Molecules are shown by their SMILES.

In turn, `CCOC(=O)C1=C(CN2CCN3C(=O)N(CC(C)(C)C(=O)O)CC3(CC)C2)NC(c2nccs2)=N[C@H]1c1cccc(F)c1C` (single isomer, unassigned) [Compound 4B, 3-((S*)-7-(((S)-5-(Ethoxycarbonyl)-6-(3-fluoro-2-methylphenyl)-2-(thiazol-2-yl)-3,6-dihydropyrimidin-4-yl)methyl)-8a-ethyl-3-oxohexahydroimidazo[1,5-a]pyrazin-2(3H)-yl)-2,2-dimethylpropanoic Acid] yielded an EC50 with HBV of 0.165 µM. The same molecule displayed a CC50 at 6 days in data set [1] of 18.5 µM.

In turn, `CCOC(=O)C1=C(CN2CCN3C(=O)N([C@H]4CC[C@H](C(=O)O)CC4)C[C@]3(C)C2)NC(c2nccs2)=N[C@H]1c1cccc(F)c1C` (relative stereo) [Compound 5A, (trans)-4-((S)-7-(((S*)-5-(Ethoxycarbonyl)-6-(3-fluoro-2-methylphenyl)-2-(thiazol-2-yl)-3,6-dihydropyrimidin-4-yl)methyl)-8a-methyl-3-oxohexahydroimidazo[1,5-a]pyrazin-2(3H)-yl)cyclohexanecarboxylic Acid] registered a half-maximal effective concentration (EC50) in the data set on HBV of 0.034 µM. For the same molecule, the midpoint of cytotoxicity in data set [1], the CC50 at 6 days, lay at 9.2 µM.

In the data set on HBV, `COC(=O)C1=C(CN2CCN3C(=O)N(CC(C)(C)C(=O)O)C[C@]3(C)C2)NC(c2nccs2)=N[C@H]1c1ccc(F)cc1Br` (relative stereo) [Compound 3A, 3-((S*)-7-(((R*)-6-(2-Bromo-4-fluorophenyl)-5-(methoxycarbonyl)-2-(thiazol-2-yl)-3,6-dihydropyrimidin-4-yl)methyl)-8a-methyl-3-oxohexahydroimidazo[1,5-a]pyrazin-2(3H)-yl)-2,2-dimethylpropanoic Acid] yielded an EC50 of 0.038 µM. For the same molecule, it took 26.7 µM to reach half-maximal cytotoxicity in data set [1] (CC50 at 6 days).

As to `CCOC(=O)C1=C(CN2CCN3C(=S)N(CC(C)(C)C(=O)O)CC3(C)C2)NC(c2nccs2)=N[C@H]1c1cccc(F)c1C` (single isomer, unassigned) [Compound 6A, 3-((R*)-7-(((S)-5-(Ethoxycarbonyl)-6-(3-fluoro-2-methylphenyl)-2-(thiazol-2-yl)-3,6-dihydropyrimidin-4-yl)methyl)-8a-methyl-3-thioxohexahydroimidazo[1,5-a]pyrazin-2(3H)-yl)-2,2-dimethylpropanoic Acid], in the data set on HBV, the EC50 was determined as 0.012 µM. Half-maximal cytotoxicity in data set [1] (CC50 at 6 days) was put at 13 µM.

As to `CCOC(=O)C1=C(CN2CCN3C(=O)N(CC(C)(C)C(=O)O)C[C@]3(C)C2)NC(c2nccs2)=N[C@H]1c1cccc(F)c1Cl` (single isomer, unassigned) [Compound 2A, (S*)-3-(-7-(((R*)-6-(2-Chloro-3-fluorophenyl)-5-(ethoxycarbonyl)-2-(thiazol-2-yl)-3,6-dihydropyrimidin-4-yl)methyl)-8a-methyl-3-oxohexahydroimidazo[1,5-a]pyrazin-2(3H)-yl)-2,2-dimethylpropanoic Acid], the response in the data set on HBV was half-maximal at 0.016 µM (EC50). The CC50 at 6 days in data set [1] is 19.4 µM.

Molecule `CCOC(=O)C1=C(CN2CCN3C(=O)N(CC(C)(C)C(=O)O)CC3(C)C2)NC(c2nccs2)=N[C@H]1c1cccc(F)c1C` (single isomer, unassigned) [Compound 1B] yielded a half-maximal effective concentration (EC50) in the data set with HBV of 0.009 µM. Besides, the CC50 at 6 days in data set [1] is 24.3 µM.

As usually defined, the EC50 is the concentration needed to bring the measured effect to its halfway point. In general, CC50 refers to the concentration at which the toxic effect on the cells reaches its halfway point. Read a low CC50 as harm at low concentration.

Values taken from patent publication US20220048919A1, “HETEROARYLDIHYDROPYRIMIDINE DERIVATIVES AND METHODS OF TREATING HEPATITIS B INFECTIONS” (Janssen Phrmaceutica NV, priority 2018, published 2022).
